Data published in ChEMBL document CHEMBL1201862, “PubChem BioAssay data set” (2004).
Calls of active or inactive are those of the source.

What was measured:
[1] = growth suppression of PTEN-null colon cells, dose response, cell-based, HCT116 PTEN knockout (AID 1047); format: functional;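 further: HCT116 colon tumor cells with PTEN knocked out; cells exposed to compound for 60 hours before readout; potency for loss of cell viability measured by luminescence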
[2] = growth suppression of beta-catenin-knockout colon cells, dose response, cell-based, HCT116, human colon tumor (AID 1045); format: functional;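 further: HCT116 colon tumor cells with beta catenin knocked out; cells exposed to compound for 60 hours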
[3] = Luminescence Cell-Based Dose Retest to Confirm Inhibitors of Cancer Stem Cells. [Related pubchem assays (depositor defined):AID2717, AID2721]; format: functional; conditions: Homo sapiens
[4] = Vero cell cytotoxicity, dose response, cytotoxicity control for Vif-APOBEC3G degradation inhibitor project, Vero cells (AID 1117358); format: functional; conditions: Human immunodeficiency virus 1, Vero
[5] = molecular target: Sphingosine 1-phosphate receptor 2 (Homo sapiens, UniProt O95136); test: Dose Response Cell Based Assay for Antagonists of the S1P2 Receptor. [Related pubchem assays: 856, 736 ]; format: functional
Sphingosine 1-phosphate receptor 2, sequence (O95136 whole entry): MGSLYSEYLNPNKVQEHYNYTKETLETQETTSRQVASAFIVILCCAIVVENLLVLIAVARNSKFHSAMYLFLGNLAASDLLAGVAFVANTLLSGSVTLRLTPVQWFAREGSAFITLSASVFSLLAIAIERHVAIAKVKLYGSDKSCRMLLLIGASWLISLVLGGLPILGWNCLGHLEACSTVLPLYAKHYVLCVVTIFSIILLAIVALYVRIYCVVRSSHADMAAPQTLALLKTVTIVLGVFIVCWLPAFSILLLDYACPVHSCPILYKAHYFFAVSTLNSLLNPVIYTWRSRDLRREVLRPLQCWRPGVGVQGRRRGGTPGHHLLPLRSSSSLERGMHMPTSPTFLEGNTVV

[6] = tested on: Streptococcus sp. 'group A'; test: growth inhibition of control SK(-) GAS strain, dose response, counter-screen for streptokinase expression inhibitor project, luminescence, kanamycin, BacTiterGlo, confirmation (AID 1900); format: functional, organism-based
Vero = test: host cell cytotoxicity of antiviral hits, dose response, cytotoxicity control for West Nile virus antiviral project, secondary assay (AID 1650); format: functional; conditions: Chlorocebus sabaeus
Streptokinase A = molecular target: T1, Streptokinase A (Streptococcus pyogenes serotype M1, UniProt P10520); test: S. pyogenes streptokinase expression inhibitors, potency, dose response, plasminogen activation absorbance, OD405 (AID 1914); format: functional, Streptococcus pyogenes M1 GAS;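 further: secreted streptokinase activity via plasminogen activation per viability signal from cell pellet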
T1 sequence (P10520 whole entry): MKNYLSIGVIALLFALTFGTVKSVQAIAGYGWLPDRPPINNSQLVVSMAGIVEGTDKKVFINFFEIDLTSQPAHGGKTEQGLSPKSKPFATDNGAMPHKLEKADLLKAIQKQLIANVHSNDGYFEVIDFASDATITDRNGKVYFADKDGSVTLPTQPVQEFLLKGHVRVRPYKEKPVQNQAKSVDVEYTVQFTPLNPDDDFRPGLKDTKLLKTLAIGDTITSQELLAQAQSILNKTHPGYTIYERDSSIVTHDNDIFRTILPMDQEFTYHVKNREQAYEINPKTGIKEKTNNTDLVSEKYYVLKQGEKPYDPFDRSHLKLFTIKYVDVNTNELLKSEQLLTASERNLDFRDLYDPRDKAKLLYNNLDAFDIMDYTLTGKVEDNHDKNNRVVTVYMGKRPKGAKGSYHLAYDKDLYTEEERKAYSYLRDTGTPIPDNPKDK

Streptococcus = test: Group A Streptococcus viability loss, dose response, counter-screen for streptokinase expression inhibitor project, luminescence, BacTiterGlo (AID 1915); format: functional, organism-based;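 further: potency for reduction of bacterial viability or growth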
INS1 = test: beta cell apoptosis inhibitors, cytokine rescue, dose response, luminescence, retest (AID 449756); format: functional, cell-based; conditions: Rattus norvegicus;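 further: cell death triggered by IL-1 beta plus TNF-alpha plus IFN-gamma mixture; protective hits raise ATP signal compared with cytokine alone wells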
[7] = Artemis endonuclease inhibitor potency, dose response, biochemical, fluorescence intensity (AID 720701); format: functional;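 further: Artemis endonuclease enzyme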
[8] = molecular target: T2, Dual specificity protein phosphatase 6 (Rattus norvegicus, UniProt Q64346); test: MKP-3 phosphatase inhibitors, primary screen, biochemical, rat enzyme, in vitro (AID 425)
T2 sequence (Q64346 whole entry): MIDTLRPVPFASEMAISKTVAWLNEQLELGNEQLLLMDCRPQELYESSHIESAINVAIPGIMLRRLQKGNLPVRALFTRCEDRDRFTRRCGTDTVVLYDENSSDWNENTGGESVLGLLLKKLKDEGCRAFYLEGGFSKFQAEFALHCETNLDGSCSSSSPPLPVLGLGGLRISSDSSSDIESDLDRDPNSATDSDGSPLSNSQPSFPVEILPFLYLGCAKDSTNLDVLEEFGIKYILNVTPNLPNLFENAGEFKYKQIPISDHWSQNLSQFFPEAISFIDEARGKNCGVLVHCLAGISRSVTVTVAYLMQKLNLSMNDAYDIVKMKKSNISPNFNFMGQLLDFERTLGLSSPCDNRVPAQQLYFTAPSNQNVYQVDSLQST

[9] = molecular target: T3, Apoptotic protease-activating factor 1 (Homo sapiens, UniProt O14727); format: functional
T3 sequence (O14727 whole entry): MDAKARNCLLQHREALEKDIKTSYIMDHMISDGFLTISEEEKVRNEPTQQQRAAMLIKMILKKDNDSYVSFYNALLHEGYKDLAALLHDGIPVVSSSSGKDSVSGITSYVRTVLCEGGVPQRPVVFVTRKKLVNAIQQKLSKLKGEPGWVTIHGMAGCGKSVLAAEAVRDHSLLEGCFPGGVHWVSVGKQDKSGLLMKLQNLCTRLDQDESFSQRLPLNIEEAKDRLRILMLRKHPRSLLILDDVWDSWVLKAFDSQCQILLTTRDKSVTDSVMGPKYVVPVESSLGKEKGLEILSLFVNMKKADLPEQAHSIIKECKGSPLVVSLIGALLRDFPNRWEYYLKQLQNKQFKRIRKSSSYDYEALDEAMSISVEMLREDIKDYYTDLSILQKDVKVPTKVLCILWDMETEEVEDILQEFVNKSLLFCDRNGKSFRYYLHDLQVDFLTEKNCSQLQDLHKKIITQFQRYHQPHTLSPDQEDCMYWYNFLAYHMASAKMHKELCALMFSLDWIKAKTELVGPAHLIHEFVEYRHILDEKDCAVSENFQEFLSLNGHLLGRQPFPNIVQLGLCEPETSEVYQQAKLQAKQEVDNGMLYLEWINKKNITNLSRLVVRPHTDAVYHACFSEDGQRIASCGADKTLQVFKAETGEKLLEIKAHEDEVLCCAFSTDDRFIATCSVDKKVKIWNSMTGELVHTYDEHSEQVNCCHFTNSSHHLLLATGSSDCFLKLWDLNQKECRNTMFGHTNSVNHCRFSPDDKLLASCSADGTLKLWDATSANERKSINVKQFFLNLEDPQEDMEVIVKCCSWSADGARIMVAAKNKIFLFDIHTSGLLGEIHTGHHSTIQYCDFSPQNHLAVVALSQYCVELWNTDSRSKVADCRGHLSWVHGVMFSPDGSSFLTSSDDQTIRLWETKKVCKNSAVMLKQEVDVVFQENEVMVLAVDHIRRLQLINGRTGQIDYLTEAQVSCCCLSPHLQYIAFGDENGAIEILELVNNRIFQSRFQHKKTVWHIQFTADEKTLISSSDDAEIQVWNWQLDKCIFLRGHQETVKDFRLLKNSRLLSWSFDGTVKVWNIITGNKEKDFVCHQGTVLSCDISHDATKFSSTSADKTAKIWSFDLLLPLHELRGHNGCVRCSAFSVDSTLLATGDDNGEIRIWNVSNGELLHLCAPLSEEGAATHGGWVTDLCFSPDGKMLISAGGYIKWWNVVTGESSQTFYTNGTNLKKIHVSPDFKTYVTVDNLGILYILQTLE

[10] = molecular target: T4, Histone-lysine N-methyltransferase NSD2 (Homo sapiens, UniProt O96028); format: biochemical
T4 sequence (O96028 whole entry): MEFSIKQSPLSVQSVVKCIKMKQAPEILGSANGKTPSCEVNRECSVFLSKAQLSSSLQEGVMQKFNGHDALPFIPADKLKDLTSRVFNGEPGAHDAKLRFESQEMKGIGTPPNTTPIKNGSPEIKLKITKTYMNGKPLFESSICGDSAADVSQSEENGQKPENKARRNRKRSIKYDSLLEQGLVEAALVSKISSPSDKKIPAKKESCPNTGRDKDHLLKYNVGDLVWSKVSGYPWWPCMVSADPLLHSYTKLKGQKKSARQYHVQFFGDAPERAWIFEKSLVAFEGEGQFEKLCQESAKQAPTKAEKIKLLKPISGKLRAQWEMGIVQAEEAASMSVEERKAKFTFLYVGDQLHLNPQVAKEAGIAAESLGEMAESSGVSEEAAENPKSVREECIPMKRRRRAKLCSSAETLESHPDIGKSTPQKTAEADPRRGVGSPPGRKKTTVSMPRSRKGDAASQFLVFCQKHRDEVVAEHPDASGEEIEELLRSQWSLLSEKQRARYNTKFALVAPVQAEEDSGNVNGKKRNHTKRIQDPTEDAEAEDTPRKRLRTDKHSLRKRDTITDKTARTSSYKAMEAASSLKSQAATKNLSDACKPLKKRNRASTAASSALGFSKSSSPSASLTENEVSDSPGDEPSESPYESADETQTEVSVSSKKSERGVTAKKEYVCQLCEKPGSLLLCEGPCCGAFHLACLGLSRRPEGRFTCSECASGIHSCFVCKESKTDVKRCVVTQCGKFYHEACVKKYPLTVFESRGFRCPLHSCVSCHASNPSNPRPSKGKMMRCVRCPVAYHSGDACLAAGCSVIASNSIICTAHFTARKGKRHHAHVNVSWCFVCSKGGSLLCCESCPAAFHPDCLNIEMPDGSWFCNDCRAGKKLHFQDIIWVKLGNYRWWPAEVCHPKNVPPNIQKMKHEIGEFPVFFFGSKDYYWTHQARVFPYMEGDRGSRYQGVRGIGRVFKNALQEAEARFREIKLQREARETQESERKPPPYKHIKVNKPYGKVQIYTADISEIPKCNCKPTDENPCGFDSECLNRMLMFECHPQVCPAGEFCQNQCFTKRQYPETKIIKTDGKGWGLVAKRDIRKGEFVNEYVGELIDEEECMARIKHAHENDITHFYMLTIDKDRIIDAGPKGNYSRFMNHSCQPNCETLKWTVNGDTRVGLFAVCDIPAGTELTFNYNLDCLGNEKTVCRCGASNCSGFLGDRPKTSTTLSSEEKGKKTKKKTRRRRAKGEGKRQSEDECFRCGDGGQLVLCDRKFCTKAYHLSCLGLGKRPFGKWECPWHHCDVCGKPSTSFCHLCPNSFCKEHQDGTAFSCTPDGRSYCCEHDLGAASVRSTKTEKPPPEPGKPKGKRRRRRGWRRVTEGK

[11] = molecular target: T5, RNA-editing ligase 1, mitochondrial (Trypanosoma brucei brucei, UniProt P86926); test: TbREL1 ligase inhibitors, dose response, biochemical, fluorescence, Trypanosoma brucei (AID 1117295); format: functional
T5 sequence (P86926 whole entry): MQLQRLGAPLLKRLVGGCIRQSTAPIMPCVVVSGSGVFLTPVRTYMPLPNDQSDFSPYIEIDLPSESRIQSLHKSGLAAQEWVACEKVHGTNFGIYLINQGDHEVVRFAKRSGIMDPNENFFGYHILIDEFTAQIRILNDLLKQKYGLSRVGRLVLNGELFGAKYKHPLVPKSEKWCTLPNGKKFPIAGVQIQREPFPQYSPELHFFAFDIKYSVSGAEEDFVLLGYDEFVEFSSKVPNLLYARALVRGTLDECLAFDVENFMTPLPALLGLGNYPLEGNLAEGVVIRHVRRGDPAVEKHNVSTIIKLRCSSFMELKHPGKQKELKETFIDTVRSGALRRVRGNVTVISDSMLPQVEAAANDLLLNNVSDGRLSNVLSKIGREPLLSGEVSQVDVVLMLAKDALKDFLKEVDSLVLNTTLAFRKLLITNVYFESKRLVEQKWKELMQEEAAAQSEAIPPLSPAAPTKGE

Estrogen receptor = molecular target: T6, Estrogen receptor (Homo sapiens, UniProt P03372);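 further: potency for inhibiting coactivator peptide recruitment to the receptor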
T6 sequence (P03372 whole entry): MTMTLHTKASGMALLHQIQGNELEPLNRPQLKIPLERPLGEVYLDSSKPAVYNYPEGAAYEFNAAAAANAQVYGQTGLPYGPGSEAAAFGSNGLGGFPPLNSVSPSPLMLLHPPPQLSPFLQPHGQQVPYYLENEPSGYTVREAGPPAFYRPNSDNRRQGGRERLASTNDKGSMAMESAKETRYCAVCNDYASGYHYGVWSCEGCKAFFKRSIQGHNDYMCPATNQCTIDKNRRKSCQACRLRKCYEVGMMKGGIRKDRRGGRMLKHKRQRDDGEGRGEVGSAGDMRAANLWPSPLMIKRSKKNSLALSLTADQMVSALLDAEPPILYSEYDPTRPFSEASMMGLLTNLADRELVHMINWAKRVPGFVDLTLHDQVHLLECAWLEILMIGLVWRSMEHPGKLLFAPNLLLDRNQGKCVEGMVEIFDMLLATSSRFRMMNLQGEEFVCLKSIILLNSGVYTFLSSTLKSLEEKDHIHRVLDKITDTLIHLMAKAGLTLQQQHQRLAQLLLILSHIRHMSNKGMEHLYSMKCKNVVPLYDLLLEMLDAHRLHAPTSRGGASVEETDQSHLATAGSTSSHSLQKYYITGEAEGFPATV

Estrogen receptor beta [12] = molecular target: T7, Estrogen receptor beta (Homo sapiens, UniProt Q92731);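 further: recombinant ER-beta bound to coactivator SRC1 peptide in presence of estradiol agonist; inhibitors block coactivator peptide binding and lower the FRET signal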
T7 sequence (Q92731 whole entry): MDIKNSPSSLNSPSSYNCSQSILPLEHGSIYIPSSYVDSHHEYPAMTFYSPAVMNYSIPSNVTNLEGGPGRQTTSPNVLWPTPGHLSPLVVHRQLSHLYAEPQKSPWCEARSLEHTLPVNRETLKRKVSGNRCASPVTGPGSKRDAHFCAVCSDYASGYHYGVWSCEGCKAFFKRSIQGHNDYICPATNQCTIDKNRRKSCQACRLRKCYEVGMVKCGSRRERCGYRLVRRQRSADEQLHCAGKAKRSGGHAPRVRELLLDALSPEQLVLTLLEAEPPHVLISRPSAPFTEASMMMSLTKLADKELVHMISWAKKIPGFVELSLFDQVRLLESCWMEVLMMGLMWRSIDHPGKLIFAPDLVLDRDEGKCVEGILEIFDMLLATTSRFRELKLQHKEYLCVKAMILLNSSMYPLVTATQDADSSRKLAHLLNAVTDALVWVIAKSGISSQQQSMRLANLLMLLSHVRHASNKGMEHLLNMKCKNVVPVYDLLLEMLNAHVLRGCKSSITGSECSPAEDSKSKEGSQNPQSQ

Estrogen receptor beta [13] = molecular target: T7, Estrogen receptor beta; test: ERβ–SRC-3 coactivator interaction inhibitors, confirmation, orthogonal assay, biochemical, ELISA, streptavidin-HRP readout (AID 1060)

Question: Which results are given for `COC(=O)c1ccc(COc2ccccc2/C=C(\C#N)C(=O)Nc2c(C)cc(C)cc2C)cc1`?
Answer: EC50 [1]: 5.83 µM (active); EC50 [2]: 5.33 µM (active); AC50 [3]: 1.28 µM (active); CC50 [4]: 15.9 µM (active)

Question: For `Cc1cc(/C=N/n2cnnc2)c(C)n1-c1ccc(OCc2ccc(Cl)cc2)cc1`, which IC50 [5] is on record?
Answer: The IC50 was 49.3 µM (not active).

Question: What about the EC50 [6] of the same molecule?
Answer: The EC50 was 5.41 µM (active).

Question: What about the CC50 (Vero) of the same molecule?
Answer: Its CC50 is 1.02 µM (active).

Question: What about the EC50 (Streptokinase A) of the same molecule?
Answer: Its EC50 is 12.9 µM (active).

Question: And the EC50 (Streptococcus)?
Answer: The EC50 was 12.3 µM (active).

Question: What about the AC50 (INS1) of the same molecule?
Answer: The AC50 was 1.15 µM (active).

Question: And the IC50 [7]?
Answer: Its IC50 is 15.7 µM (active).

Question: Which IC50 [8] does the source give for `CCCCNC(=O)c1c(N)n(CCCOC)c2nc3ccccc3nc12` here?
Answer: The IC50 was > 100 µM (not active).

Question: And the IC50 [9]?
Answer: Its IC50 is 27.7 µM (active).

Question: And the AC50 [10]?
Answer: Its AC50 is 8.05 µM (active).

Question: What about the IC50 [11] of the same molecule?
Answer: Its IC50 is 17.9 µM (inactive).

Question: What does the source list for `CCOC(=O)C1=c2/c(=C/c3ccccc3OC)c(N)c(C#N)n2C(=O)C(c2ccccc2OC)S1` (stereo not drawn)?
Answer: IC50 (Estrogen receptor): 9.8 µM (active); IC50 (Estrogen receptor beta [12]): > 50 µM (not active); IC50 (Estrogen receptor beta [13]): 78.5 µM (not active)
